PubChem BioAssay AID248 (DTP/NCI, 2004)
Several values for one entry are separate records, joined by “and”; a condition that tells them apart may be missing. Equal entries are not always repeated. Toxic doses and inconclusive results are not listed.

Test system: L1210 leukemia ip in BDF1 mice, survival T/C
Assay: NCI In Vivo Anticancer Drug Screen. Data for tumor model L1210 Leukemia (intraperitoneal) in B6D2F1 (BDF1) mice
Conditions: endpoint: mean survival time, higher = longer survival
Summary of the method: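 Transplantable tumor model; survival measured in treated vs vehicle control mice. Value = treated/control.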

O=C1CC2=CC3C=CC(N1)C2C=C3 (stereo not drawn)
T/C (dose: 100.0 mg/kg/injection, schedule: Q04DX003 (ip), vehicle: saline with Tween-80): 109 % of control
T/C (dose: 200.0 mg/kg/injection, schedule: Q04DX003 (ip), vehicle: saline with Tween-80): 106 % of control
T/C (dose: 400.0 mg/kg/injection, schedule: Q04DX003 (ip), vehicle: saline with Tween-80): 109 % of control

CCOC(=O)/C=C/c1c(Cl)nc2ccccn2c1=O
T/C (dose: 100.0 mg/kg/injection, schedule: Q01DX001 (ip), vehicle: saline with Tween-80): 96 % of control
T/C (dose: 100.0 mg/kg/injection, schedule: Q01DX009 (ip), vehicle: saline): 90 % of control
T/C (dose: 200.0 mg/kg/injection, schedule: Q01DX001 (ip), vehicle: saline with Tween-80): 94 % of control
T/C (dose: 200.0 mg/kg/injection, schedule: Q01DX009 (ip), vehicle: saline): 90 % of control
T/C (dose: 400.0 mg/kg/injection, schedule: Q01DX001 (ip), vehicle: saline with Tween-80): 92 % of control
T/C (dose: 400.0 mg/kg/injection, schedule: Q01DX009 (ip), vehicle: saline): 95 % of control

CCOC(=O)C(=CNc1cc(NC(C)=O)nc(SC)n1)C(=O)OCC
T/C (dose: 100.0 mg/kg/injection, schedule: Q04DX002 (ip), vehicle: Klucel (hydroxypropylcellulose) (HPC)): 96 % of control
T/C (dose: 200.0 mg/kg/injection, schedule: Q04DX002 (ip), vehicle: Klucel (hydroxypropylcellulose) (HPC)): 103 % of control
T/C (dose: 400.0 mg/kg/injection, schedule: Q04DX002 (ip), vehicle: Klucel (hydroxypropylcellulose) (HPC)): 96 % of control

C[n+]1ccccc1CCC(=O)Nc1ccccc1
T/C (dose: 100.0 mg/kg/injection, schedule: Q01DX009 (ip), vehicle: saline with Tween-80): 87 % of control

C[CH2][Pb]([CH2]C)([CH2]C)[S]C(C)=O
T/C (dose: 1.5 mg/kg/injection, schedule: Q01DX009 (ip), vehicle: Klucel (hydroxypropylcellulose) (HPC)): 89 % of control
T/C (dose: 3.0 mg/kg/injection, schedule: Q01DX009 (ip), vehicle: Klucel (hydroxypropylcellulose) (HPC)): 101 % of control
T/C (dose: 12.5 mg/kg/injection, schedule: Q04DX002 (ip), vehicle: Klucel (hydroxypropylcellulose) (HPC)): 102 % of control

CCCCCCCCCCCCCC(C)NCc1ccccc1 (stereo not drawn)
T/C (dose: 50.0 mg/kg/injection, schedule: Q01DX001 (ip), vehicle: saline): 97 % of control
T/C (dose: 100.0 mg/kg/injection, schedule: Q01DX001 (ip), vehicle: saline): 88 % of control

C=CCOC(=O)Nc1ccccc1
T/C (dose: 100.0 mg/kg/injection, schedule: Q01DX001 (ip), vehicle: Klucel (hydroxypropylcellulose) (HPC)): 92 % of control and 90 % of control
T/C (dose: 100.0 mg/kg/injection, schedule: Q01DX009 (ip), vehicle: Klucel (hydroxypropylcellulose) (HPC)): 106 % of control
T/C (dose: 200.0 mg/kg/injection, schedule: Q01DX001 (ip), vehicle: Klucel (hydroxypropylcellulose) (HPC)): 93 % of control and 94 % of control
T/C (dose: 200.0 mg/kg/injection, schedule: Q01DX009 (ip), vehicle: Klucel (hydroxypropylcellulose) (HPC)): 95 % of control
T/C (dose: 300.0 mg/kg/injection, schedule: Q01DX001 (ip), vehicle: Klucel (hydroxypropylcellulose) (HPC)): 97 % of control
T/C (dose: 400.0 mg/kg/injection, schedule: Q01DX009 (ip), vehicle: Klucel (hydroxypropylcellulose) (HPC)): 101 % of control

O=NN(CCF)C(=O)NCCF
T/C (dose: 1.25 mg/kg/injection, schedule: Q01DX001 (ip), vehicle: saline): 113 % of control
T/C (dose: 1.75 mg/kg/injection, schedule: Q01DX001 (ip), vehicle: saline): 118 % of control
T/C (dose: 2.0 mg/kg/injection, schedule: Q01DX001 (ip), vehicle: saline): 116 % of control
T/C (dose: 2.5 mg/kg/injection, schedule: Q01DX001 (ip), vehicle: saline): 118 % of control
T/C (dose: 3.5 mg/kg/injection, schedule: Q01DX001 (ip), vehicle: saline): 161 % of control
T/C (dose: 5.0 mg/kg/injection, schedule: Q01DX001 (ip), vehicle: saline): 156 % of control
T/C (dose: 6.0 mg/kg/injection, schedule: Q01DX001 (ip), vehicle: saline): 242 % of control
T/C (dose: 7.0 mg/kg/injection, schedule: Q01DX001 (ip), vehicle: saline): 316 % of control
T/C (dose: 8.0 mg/kg/injection, schedule: Q01DX001 (ip), vehicle: saline): 201 % of control
T/C (dose: 12.0 mg/kg/injection, schedule: Q01DX001 (ip), vehicle: saline): 312 % of control and 333 % of control
T/C (dose: 18.0 mg/kg/injection, schedule: Q01DX001 (ip), vehicle: saline): 322 % of control

CC(C)(N)COC(=O)c1ccc([N+](=O)[O-])cc1
T/C (dose: 50.0 mg/kg/injection, schedule: Q01DX009 (ip), vehicle: acetone): 101 % of control
T/C (dose: 100.0 mg/kg/injection, schedule: Q01DX009 (ip), vehicle: acetone): 101 % of control
T/C (dose: 200.0 mg/kg/injection, schedule: Q01DX009 (ip), vehicle: acetone): 95 % of control
